# Target: Toll-like receptor 7 (Homo sapiens (Human), UniProt Q9NYK1)
# Experiment: Toll-like receptor 7 in vitro receptor binding activity screen (HEK-blue hTLR7 cell, Quanti-Blue alkaline phosphatase readout)
# Format: cell-based
# Details: 24 h incubation, read-out: TLR7 EC50
# Protocol: Toll-Like Receptor 7 and Toll-Like Receptor 8 In Vitro Receptor Binding Activity Screen
# HEK-blue hTLR7 cell and HEK-blue hTLR8 cell (available from InvivoGen)
# heat inactivated fetal bovine serum
# Anti Mycoplasma reagent Normocin™
# The structures of GS-9620 and R848 used are as follows, wherein the preparation of GS-9620 could be referred to the process disclosed in US20100143301; R848 was commercially available from ABGENT (IMG-2208, specification: 0.5 mg).
# 1. Preparation of 96-well compound plate:
# The compounds were gradient diluted with DMSO in 3-fold using liquid work station POD starting at a concentration of 10 mmol/L and 10 points were diluted (2nd column to 11th column, and each point was duplicated). At 12th column, 1 μL of 5 mg/mL positive compound R848 was added as positive control; and at 1st column, 1 μL of DMSO was added as negative control. Each well contained 1 μL of DMSO.
# 2. The cells in culture flask were collected and the cell density was diluted to 250,000 cells/mL.
# 3. 200 μL (50,000 cells/well) of cell suspension was added into prepared compound plate and the final concentration of DMSO in each well was 0.5%.
# 4. The culture plates containing cells and the compounds were incubated in CO2 incubator for 24 h at 37° C., 5% CO2.
# 5. After 24 h incubation, 20 μL of supernatant was removed from each well to a 96-well transparent assay plate. To each well of the assay plate was added 180 μL of Quanti-Blue reagent and the plate was incubated in an incubator at 37° C., 5% CO2 for 1 h.
# 6. After 1 h, the content of alkaline phosphatase in 20 μL of supernatant was determined using Microplate Reader OD650.
# 7. EC50 of each compound was obtained with Prism software.
# Toll-like receptor 7, sequence (Q9NYK1 27-1049): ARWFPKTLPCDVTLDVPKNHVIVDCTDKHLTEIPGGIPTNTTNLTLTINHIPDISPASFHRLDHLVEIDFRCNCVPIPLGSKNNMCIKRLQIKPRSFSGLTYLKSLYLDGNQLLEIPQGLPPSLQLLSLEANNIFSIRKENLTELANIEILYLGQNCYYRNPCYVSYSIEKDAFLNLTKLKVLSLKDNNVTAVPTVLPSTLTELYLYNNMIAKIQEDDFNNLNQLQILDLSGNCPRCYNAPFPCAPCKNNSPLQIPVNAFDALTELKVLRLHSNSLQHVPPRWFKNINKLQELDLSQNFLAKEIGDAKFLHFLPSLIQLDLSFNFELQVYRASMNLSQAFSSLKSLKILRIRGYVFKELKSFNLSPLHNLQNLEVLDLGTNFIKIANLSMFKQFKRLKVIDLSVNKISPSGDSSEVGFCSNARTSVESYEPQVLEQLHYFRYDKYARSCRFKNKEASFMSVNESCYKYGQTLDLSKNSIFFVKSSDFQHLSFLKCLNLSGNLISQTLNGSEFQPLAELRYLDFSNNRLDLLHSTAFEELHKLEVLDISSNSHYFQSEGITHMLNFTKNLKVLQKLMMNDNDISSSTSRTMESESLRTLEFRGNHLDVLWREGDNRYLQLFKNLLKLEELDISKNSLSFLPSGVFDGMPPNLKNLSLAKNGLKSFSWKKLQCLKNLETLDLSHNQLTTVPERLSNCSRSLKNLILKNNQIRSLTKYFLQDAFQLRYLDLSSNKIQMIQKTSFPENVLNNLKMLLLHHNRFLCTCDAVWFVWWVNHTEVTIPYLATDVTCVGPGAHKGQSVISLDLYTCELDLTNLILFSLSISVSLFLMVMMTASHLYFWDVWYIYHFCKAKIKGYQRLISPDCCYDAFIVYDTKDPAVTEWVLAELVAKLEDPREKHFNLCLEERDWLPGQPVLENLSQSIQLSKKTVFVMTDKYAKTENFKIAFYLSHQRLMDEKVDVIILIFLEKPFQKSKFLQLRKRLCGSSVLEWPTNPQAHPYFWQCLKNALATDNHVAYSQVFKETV
row,SMILES,EC50 [µM]
1,"CCCCOc1nc(N)c2[nH]cc(Cc3ccc(CN4CCCC4)cc3)c2n1 [Compound 1, 2-butoxy-7-(4-(pyrrolidin-1-ylmethyl)benzyl)-5H-pyrrolo[3,2-d]pyrimidin-4-amine]",0.1 to 1
2,CCCCOc1nc(N)c2[nH]cc(Cc3ccc(CN4CCC(F)(F)C4)cc3)c2n1 [Compound 2],1 to 50
3,CCCCOc1nc(N)c2[nH]cc(Cc3ccc(CN4CCC(F)C4)cc3)c2n1 (stereo not shown) [Compound 3],0.1 to 1
4,CCCCOc1nc(N)c2[nH]cc(Cc3ccc(CN4CCC(O)C4)cc3)c2n1 (stereo not shown) [Compound 4],0.1 to 1
5,CCCCOc1nc(N)c2[nH]cc(Cc3ccc(CN4CCCCC4)cc3)c2n1 [Compound 5],0.1 to 1
6,CCCCOc1nc(N)c2[nH]cc(Cc3ccc(CN4CCOCC4)cc3)c2n1 [Compound 6],1 to 50
7,CCCCOc1nc(N)c2[nH]cc(Cc3ccc(CN4CCN(C)CC4)cc3)c2n1 [Compound 7],1 to 50
8,CCCCOc1nc(N)c2[nH]cc(Cc3ccc(CN(C)C)cc3)c2n1 [Compound 8],0.1 to 1
9,CCCCOc1nc(N)c2[nH]cc(Cc3ccc(CN(CC)CC)cc3)c2n1 [Compound 9],0.1 to 1
10,CCCCOc1nc(N)c2[nH]cc(Cc3ccc(CN(CCC)CCC)cc3)c2n1 [Compound 10],0.1 to 1
11,CCCCOc1nc(N)c2[nH]cc(Cc3ccc(CN4CCC4)cc3)c2n1 [Compound 11],0.1 to 1
12,CCCCOc1nc(N)c2[nH]cc(Cc3ccc(CN4CC(OC)C4)cc3)c2n1 [Compound 12],0.1 to 1
13,CCCCOc1nc(N)c2[nH]cc(Cc3ccc(CN4CCCN(C)CC4)cc3)c2n1 [Compound 13],0.1 to 1
14,CCCCOc1nc(N)c2[nH]cc(Cc3ccc(CN4CC(C)OC(C)C4)cc3)c2n1 (stereo not shown) [Compound 14],0.1 to 1
15,CCCCOc1nc(N)c2[nH]cc(Cc3ccc(CN4CCC(OC)CC4)cc3)c2n1 [Compound 15],0.1 to 1
16,CCCCOc1nc(N)c2[nH]cc(Cc3ccc(CN4CCN(C(C)C)CC4)cc3)c2n1 [Compound 16],0.1 to 1

# Source: US10654856B2, “Method for preparing pyrrolo[3,2-D]pyrimidine compound, and intermediates thereof” (CHIA TAI TIANQING PHARMACEUTICAL GROUP CO., LTD., priority 2016, dated 2020)
